Experimental data taken from article PMC9502404, “The Strong Anti-Tumor Effect of Smp24 in Lung Adenocarcinoma A549 Cells Depends on Its Induction of Mitochondrial Dysfunctions and ROS Accumulation” (Toxins, 2022).
Where no end group is shown, it is not given here.

Tests used:
A549 cells = experiment: MTT cell viability and proliferation assay; type: cell-based, human; conditions: Smp24 1.25-20 μM, 12, 24 and 48 h tested, time of the IC50 not stated, triplicate, consistent with ref 10
Description: Cellular viability was analyzed via MTT method as reported in our previous study. Briefly, A549 cells (1 × 10^4 cells/well) were cultured in 96-well plates and treated with a gradient concentration of Smp24 (1.25–20 μM) at different time intervals (12, 24, and 48 h). A549 cells were pre-incubated with different inhibitors including 40 μΜ Nec-1, 40 μM Z-DEVD-FMK, 40 μM Z-VAD-FMK, and 2 mM NAC for 30 min before 5 μM Smp24 was incubated with the cells for 12 h to investigate the responsibility of different signaling pathways in the cytotoxic effects of Smp24. After incubation, 10 µL MTT (5 mg/mL) was then added and incubated for 4 h at 37 °C in the dark. Subsequently, 200 µL DMSO was applied into each well after discarding the cell medium, and the cell viability was estimated by calculating the absorbance value at 490 nm via a microplate reader (Tecan Company, Männedorf, Switzerland). The experiments were performed in triplicate.

MRC-5 = experiment: MTT cell viability assay, normal cells; type: cell-based; conditions: time not stated, MRC-5 not described in methods

## IWSFLIKAATKLLPSLFGGGKKDS [Smp24]
A549 cells
  IC50: ~4.06 µM
MRC-5
  IC50: ~14.7 µM
